From US8008354B2, “Death receptor sensitizing compounds and methods of use therefor” (Burnham Institute for Medical Research, priority 2006, dated 2011)
“Also recorded” adds a separate entry of the source. Structures can show the parent of a compound that is named as a salt.

Key:
[1] = test system: PPC-1 cells; test: Apoptosis of PPC-1 cells transfected with CrmA or Bcl-XL, treated with CH-11 and compound; format: cell-based, human; conditions: for protection by Bcl-XL against apoptosis: PPC-1 cells transfected with Bcl-XL; for protection by CrmA against apoptosis induced by CH-11 plus compound: PPC-1 cells transfected with CrmA
Method: FIG. 6. Characterization of the mechanism of FAS-sensitizing compounds. (A) PPC-1 cells (1×10^5) were seeded in 24 well plates. The next day, cells were treated with CH-11 antibody (100 ng/mL) and 30 μM 6094911, 5809354, or 5569100 with (square) or without (diamond) caspase inhibitor z-VAD-fmk (100 μM). Apoptosis was measured 24 hours later by Annexin V staining, expressing data as percentage of Annexin V-negative (“viable”) cells (mean+SD) (n=3). (B) PPC-1 cells (2×10^5) were seeded in 6 well plates and co-transfected with plasmids encoding Bcl-XL, Crm A, or empty vector along with a green fluorescent protein (GFP) encoding plasmid to identify successfully transfected cells. After 48 hours, cells were treated with CH-11 antibody (100 ng/mL) and 6094911 (30 μM), 5809354 (30 μM), or 5569100 (15 μM). As a positive control, transfected cells were treated with staurosporine (0.5 μM) (STS). Apoptotic cells were identified by morphological assessment of the GFP-positive cells, and data were expressed as the percentage of nonapoptotic (“viable”) cells (mean+SD) (n=3).
Cell transfections. PPC-1 cells (2×10^5) were seeded in 35 mm diameter plates in RPMI with 10% FCS. The next day the cells were co-transfected using Lipofectamine Plus (Invitrogen, Carlsbad, Calif.) with 0.5 μg GFP-encoding plasmid pEGFP (Invitrogen) in combination with 1.5 μg of plasmids encoding Bcl-XL, the viral caspase-8 inhibitor Crm A, or empty vector. At 2 days post-transfection, cells were incubated with various concentrations of CH-11 antibody and the test compounds for 24 hours, then the percentage apoptosis was scored by UV-microscopic analysis of the GFP-positive cells, counting a minimum of 200 cells. Cells that had rounded up and were floating in the medium were counted as non-viable, while cells that remained adherent to the plate with normal morphological features were counted as viable.
To further address the specificity of the compounds for the extrinsic pathway, the effects of selective apoptosis inhibitory genes were examined. For these experiments, PPC-1 cells were transfected with plasmids encoding CrmA, a viral protein that blocks the extrinsic pathway by inhibiting caspase-8 (Zhou et al., 1997) or encoding Bcl-xL, a mitochondria-targeting protein that blocks the intrinsic pathway by inhibiting release of cytochrome c (Boise et al., 1993; Kharbanda et al., 1997). After transfection, cells were treated with CH-11 antibody and compounds 6094911, 5809354, or […] scoring the percentage of apoptotic cells among the successfully transfected cells as determined by co-transfection of a GFP-marker plasmid.

[2] = test system: FLIP; test: FLIP protein levels by SDS-PAGE/immunoblotting; format: cell-based, human
Method: FIG. 7. Effect of FAS-sensitizing compounds on levels of FLIP protein and DISC activation. (A) PPC-1 cells (2×10^5) were seeded into 35 mm plates and treated the next day with various FAS-sensitizing compounds (30 μM), with (+) or without (−) CH-11 antibody (100 ng/mL). As a positive control, cells were treated with CDDO (5 μM). Cell lysates were prepared 24 hours later, normalized for total protein content, and analyzed by SDS-PAGE/immunoblotting using antibodies specific for FLIP or a-tubulin. (B) PPC-1, OVCAR-3, T47D, MDA-MB-468 and DU 145 cells (2×10^5) were seeded into 35 mm plates and treated the next day with 5809354 (40 μM). Cell lysates were prepared 24 hours after treatment, normalized for total protein and analyzed by SDS-PAGE/immunoblotting using antibodies specific for FLIP or β-actin. (C) PPC-1, OVCAR-3, T47D, and DU 145 cells (2×10^5) were seeded into 35 mm plates and treated the next day with 5809354 (40 μM) (black bars) or buffer control (white bars). mRNA was extracted 24 hours after treatment. Levels of the long isoform of FLIP and GAPDH were detected by quantitative RT-PCR. Levels of FLIP were normalized for GAPDH expression and expressed as a mean fold change+SD over buffer treated cells. (D) PPC-1 cells (2×10^5) were seeded into 35 mm plates and treated the next day with various FAS-sensitizing compounds (30 μM) with (+) or without (−) CH-11 (100 ng/mL). Cell lysates were prepared 24 hours after treatment, normalized for total protein, and analyzed by SDS-PAGE/immunoblotting using antibodies specific for caspase-8 and β-actin.
FIG. 13. Small molecule down-regulation of FLIP sensitizes prostate cancer cells to anoikis. (A) PPC-1 cells were seeded overnight in adherent conditions and then treated with increasing concentrations of 5809354 for 16 hours. After incubation, cells were harvested. Total cellular RNA was extracted and mRNA levels of the long isoform of FLIP (FLIPL), the short isoform of FLIP (FLIPS), or rRNA levels of 18S were detected by real-time RT-PCR. Data were normalized using the ΔΔCT method and expressed as the mean±SEM percent of […] expression relative to untreated controls. (B) PPC-1 cells were cultured and treated as in panel A. Total cellular protein was isolated and analyzed by SDS-PAGE immunoblotting using anti-FLIP and anti-Actin antibodies. (C) PPC-1 cells were seeded overnight in adherent conditions and then exposed to increasing concentrations of 5809354 in the presence or absence of Fas-activating antibody (CH-11, 100 ng/mL). Thirty hours after incubation, cell viability was determined using the MTS assay. Data represents the mean±SEM of percent of viable cells. (D) PPC-1 cells were seeded overnight in adherent or suspension conditions and then treated with increasing concentrations of 5809354 for 30 hours. After incubation, apoptosis was measured by flow cytometry to detect cell surface annexin V expression and PI. Data represents the mean±SEM of percent of viable cells. (E) Cells were harvested, fixed, stained with DAPI, and nuclear morphology analyzed by fluorescence microscopy. Arrowheads refer to fragmented nuclei indicative of apoptosis. […] Thirty hours after incubation, cells were harvested and equal volumes plated in a colony formation assay. One week later, cells were stained with methylene blue and the number of colonies counted. Data represents the mean ±SEM percent of colonies relative to untreated controls.
Immunoblot analysis. Protein extracts were obtained by washing cells with phosphate-buffered saline (PBS) [pH 7.4] and suspending the cells in lysis buffer [10 mM Tris (pH 7.4), 150 mM NaCl, 0.1% Triton X-100, 0.5% sodium deoxycholate, and 5 mM EDTA] containing protease inhibitors (Complete tablets; Roche, Indianapolis, Ind.). Immunoblot assays were performed as described in Carter et al. (2005). […]

[3] = PPC-1 cells, 30 μM, with or without CH-11, 24 hours, long isoform

Molecule	protection by Bcl-XL against apoptosis [1]	FLIP protein expression ([2]; Example 2, PPC-1 cells, increasing concentrations, 16 hours)	levels of FLIP protein [2, 3]	levels of FLIP protein ([2]; non-responding cell lines DU145 and MDA-MB-468, 40 μM, 24 hours)	protection by CrmA against apoptosis induced by CH-11 plus compound [1]	levels of FLIP protein ([2]; PPC-1 cells, 30 μM, with or without CH-11, 24 hours, long isoform, hydrobromide)
CN[C@@H]1C[C@H]2O[C@@](C)([C@@H]1OC)n1c3ccccc3c3c4c(c5c6ccccc6n2c5c31)C(=O)NC4 [staurosporine, reference compound]	Bcl-XL but not Crm A protected	–	–	–	–	–
4-(4-chloro-2-methylphenoxy)-N-hydroxybutanamide [compound 5809354]	no protective effect	concentration-dependent decrease	decreased levels of FLIP protein	levels of FLIP were decreased	almost completely protected	–
CCn1c(=N)n(CC(=O)c2cc(C(C)(C)C)c(O)c(C(C)(C)C)c2)c2ccccc21 [compound 5569100, 1-(3,5-di-tert-butyl-4-hydroxyphenyl)-2-(3-ethyl-2-imino-2,3-dihydro-1H-benzo[d]imidazol-1-yl)ethanone hydrobromide]	no protective effect	–	–	–	almost completely protected	decreased levels of FLIP protein; also recorded: reduced FLIP expression
CC(=O)CC(=O)Nc1ccc(Cl)c(C(F)(F)F)c1 [compound 6094911, N-[4-chloro-3-(trifluoromethyl)phenyl]-3-oxobutanamide]	no protective effect	–	did not alter levels of FLIP protein	–	almost completely protected	–
